In patent publication US20240041877A1, “DOSAGE REGIME AND METHOD FOR TREATING PULMONARY ARTERIAL HYPERTENSION” (Altavant Sciences GmbH, priority 2019, published 2024):

Assay: Study KAR5585-101 Part 1 (SAD): plasma pharmacokinetics after a single oral dose of KAR5585, fasting and fed (incl. dose proportionality and food effect)
Conditions: for AUC / AUC(0-inf) / concentration at 12 h / Cmax / Vd/F / half-life / Tmax: human, plasma, po; for AUC: AUC0-tau; for AUC(0-inf): AUC0-∞; for Vd/F: Vz/F
[1] = 400 mg, 400 mg KAR5585 single oral, fasted, Cohort 3A, Mean
[2] = 400 mg, 400 mg KAR5585 single oral, fed, Cohort 3B, Geo. Mean
[3] = 400 mg, 400 mg KAR5585 single oral, fed, Cohort 3B, Mean
[4] = 400 mg, Geometric Mean, Cohort 3A (Fasting), 400 mg KAR5585 single oral dose, fasting
[5] = 400 mg, Geometric Mean, Cohort 3B (Fed), 400 mg KAR5585 single oral dose, fed
[6] = 400 mg, 400 mg KAR5585 single oral, fasted, Cohort 3A, Geo. Mean
[7] = 700 mg, 700 mg KAR5585 single oral, fasted, Cohort 4, Geo. Mean
[8] = 700 mg, 700 mg KAR5585 single oral, fasted, Cohort 4, Mean
[9] = 1200 mg, 1200 mg KAR5585 single oral, fasted, Cohort 5, Geo. Mean
[10] = 1200 mg, 1200 mg KAR5585 single oral, fasted, Cohort 5, Mean
[11] = 2000 mg, 2000 mg KAR5585 single oral, fasted, Cohort 6, Geo. Mean
[12] = 2000 mg, 2000 mg KAR5585 single oral, fasted, Cohort 6, Mean

Experimental: Food effect was to be evaluated in Part 1, Period 2. Part 2 was permitted to begin before Part 1 was completed and, in each part, the data from each dose Cohort were to be reviewed for safety before the next dose Cohort was enrolled.
Part 1 had 6 Cohorts of 12 subjects each (for a total of 72 subjects) and Part 2 had 4 Cohorts of 12 subjects each (for a total of 48 subjects). In Part 1, the 12 subjects in Cohort 3 (400 mg)were studied twice, once under fasting conditions (Period 1) and once under fed conditions (Period 2) for food-effect assessment.
Pharmacokinetic data were to be summarized descriptively.

**Q.** Which AUC [1] does the source give for `CCOC(=O)[C@@H]1CC2(CCN(c3cc(O[C@H](c4ccc(Cl)cc4-c4ccccc4)C(F)(F)F)nc(N)n3)CC2)CN1` [KAR5585, (S)-ethyl 8-(2-amino-6-((R)-1-(5-chloro-[1,1′-biphenyl]-2-yl)-2,2,2-trifluoroethoxy)pyrimidin-4-yl)-2,8-diazaspiro[4.5]decane-3-carboxylate] here?
**A.** Its AUC is 219 ng·h/mL.

**Q.** And the AUC [2]?
**A.** The AUC was 854 ng·h/mL.

**Q.** What about the AUC [3] of the same compound?
**A.** Its AUC is 868 ng·h/mL.

**Q.** What about the AUC [4] of the same compound?
**A.** The AUC was 176 ng·h/mL.

**Q.** What about the AUC [5] of the same compound?
**A.** The AUC was 854 ng·h/mL.

**Q.** What about the AUC(0-inf) [6] of the same compound?
**A.** The AUC(0-inf) was 288 ng·h/mL.

**Q.** What about the AUC(0-inf) [1] of the same compound?
**A.** Its AUC(0-inf) is 302 ng·h/mL.

**Q.** And the AUC(0-inf) [2]?
**A.** Its AUC(0-inf) is 903 ng·h/mL.

**Q.** What about the AUC(0-inf) [3] of the same compound?
**A.** The AUC(0-inf) was 915 ng·h/mL.

**Q.** And the concentration at 12 h (400 mg, C12, 400 mg KAR5585 single oral, fasted, Cohort 3A, Geo. Mean)?
**A.** The concentration at 12 h was 7.4 ng/mL.

**Q.** And the concentration at 12 h (400 mg, C12, 400 mg KAR5585 single oral, fasted, Cohort 3A, Mean)?
**A.** The concentration at 12 h was 7.45 ng/mL.

**Q.** And the concentration at 12 h (400 mg, C12, 400 mg KAR5585 single oral, fed, Cohort 3B, Geo. Mean)?
**A.** The concentration at 12 h was 19.7 ng/mL.

**Q.** And the concentration at 12 h (400 mg, C12, 400 mg KAR5585 single oral, fed, Cohort 3B, Mean)?
**A.** Its concentration at 12 h is 21 ng/mL.

**Q.** And the Cmax [6]?
**A.** The Cmax was 42 ng/mL.

**Q.** And the Cmax [1]?
**A.** Its Cmax is 52.8 ng/mL.

**Q.** And the Cmax [2]?
**A.** The Cmax was 165 ng/mL.

**Q.** And the Cmax [3]?
**A.** Its Cmax is 169 ng/mL.

**Q.** What about the Cmax [4] of the same compound?
**A.** The Cmax was 42 ng/mL.

**Q.** What about the Cmax [5] of the same compound?
**A.** Its Cmax is 165 ng/mL.

**Q.** What about the Vd/F [6] of the same compound?
**A.** Its Vd/F is 8100 L.

**Q.** And the Vd/F [1]?
**A.** The Vd/F was 8330 L.

**Q.** And the Vd/F [2]?
**A.** The Vd/F was 2730 L.

**Q.** And the Vd/F [3]?
**A.** Its Vd/F is 2780 L.

**Q.** What about the half-life (400 mg, t1 (t½, apparent terminal half-life), 400 mg KAR5585 single oral, fasted, Cohort 3A, Geo. Mean) of the same compound?
**A.** Its half-life is 4.04 h.

**Q.** And the half-life (400 mg, t1 (t½, apparent terminal half-life), 400 mg KAR5585 single oral, fasted, Cohort 3A, Mean)?
**A.** The half-life was 4.08 h.

**Q.** And the half-life (400 mg, t1 (t½, apparent terminal half-life), 400 mg KAR5585 single oral, fed, Cohort 3B, Geo. Mean)?
**A.** Its half-life is 4.26 h.

**Q.** And the half-life (400 mg, t1 (t½, apparent terminal half-life), 400 mg KAR5585 single oral, fed, Cohort 3B, Mean)?
**A.** Its half-life is 4.45 h.

**Q.** What about the Tmax (400 mg, tmax, 400 mg KAR5585 single oral, fasted, Cohort 3A, Median) of the same compound?
**A.** The Tmax was 2.07 h.

**Q.** And the Tmax (400 mg, tmax, 400 mg KAR5585 single oral, fed, Cohort 3B, Median)?
**A.** The Tmax was 3 h.

**Q.** And the AUC [7]?
**A.** Its AUC is 362 ng·h/mL.

**Q.** What about the AUC [8] of the same compound?
**A.** The AUC was 386 ng·h/mL.

**Q.** What about the AUC(0-inf) [7] of the same compound?
**A.** The AUC(0-inf) was 412 ng·h/mL.

**Q.** What about the AUC(0-inf) [8] of the same compound?
**A.** The AUC(0-inf) was 436 ng·h/mL.

**Q.** What about the concentration at 12 h (700 mg, C12, 700 mg KAR5585 single oral, fasted, Cohort 4, Geo. Mean) of the same compound?
**A.** Its concentration at 12 h is 9.84 ng/mL.

**Q.** And the concentration at 12 h (700 mg, C12, 700 mg KAR5585 single oral, fasted, Cohort 4, Mean)?
**A.** Its concentration at 12 h is 10.7 ng/mL.

**Q.** What about the Cmax [7] of the same compound?
**A.** The Cmax was 95.2 ng/mL.

**Q.** And the Cmax [8]?
**A.** Its Cmax is 99.4 ng/mL.

**Q.** And the Vd/F [7]?
**A.** Its Vd/F is 8390 L.

**Q.** What about the Vd/F [8] of the same compound?
**A.** The Vd/F was 9120 L.

**Q.** And the half-life (700 mg, t1 (t½, apparent terminal half-life), 700 mg KAR5585 single oral, fasted, Cohort 4, Geo. Mean)?
**A.** Its half-life is 3.42 h.

**Q.** And the half-life (700 mg, t1 (t½, apparent terminal half-life), 700 mg KAR5585 single oral, fasted, Cohort 4, Mean)?
**A.** Its half-life is 3.46 h.

**Q.** And the Tmax (700 mg, tmax, 700 mg KAR5585 single oral, fasted, Cohort 4, Median)?
**A.** Its Tmax is 1.75 h.

**Q.** And the AUC [9]?
**A.** Its AUC is 296 ng·h/mL.

**Q.** What about the AUC [10] of the same compound?
**A.** Its AUC is 364 ng·h/mL.

**Q.** What about the AUC(0-inf) [9] of the same compound?
**A.** Its AUC(0-inf) is 406 ng·h/mL.

**Q.** What about the AUC(0-inf) [10] of the same compound?
**A.** The AUC(0-inf) was 462 ng·h/mL.

**Q.** And the concentration at 12 h (1200 mg, C12, 1200 mg KAR5585 single oral, fasted, Cohort 5, Geo. Mean)?
**A.** Its concentration at 12 h is 11 ng/mL.

**Q.** And the concentration at 12 h (1200 mg, C12, 1200 mg KAR5585 single oral, fasted, Cohort 5, Mean)?
**A.** The concentration at 12 h was 11.8 ng/mL.

**Q.** And the Cmax [9]?
**A.** Its Cmax is 68.1 ng/mL.

**Q.** What about the Cmax [10] of the same compound?
**A.** The Cmax was 83 ng/mL.

**Q.** And the Vd/F [9]?
**A.** The Vd/F was 14500 L.

**Q.** And the Vd/F [10]?
**A.** Its Vd/F is 16900 L.

**Q.** What about the half-life (1200 mg, t1 (t½, apparent terminal half-life), 1200 mg KAR5585 single oral, fasted, Cohort 5, Geo. Mean) of the same compound?
**A.** Its half-life is 3.4 h.

**Q.** What about the half-life (1200 mg, t1 (t½, apparent terminal half-life), 1200 mg KAR5585 single oral, fasted, Cohort 5, Mean) of the same compound?
**A.** Its half-life is 3.58 h.

**Q.** And the Tmax (1200 mg, tmax, 1200 mg KAR5585 single oral, fasted, Cohort 5, Median)?
**A.** The Tmax was 2 h.

**Q.** And the AUC [11]?
**A.** The AUC was 638 ng·h/mL.

**Q.** What about the AUC [12] of the same compound?
**A.** The AUC was 773 ng·h/mL.

**Q.** What about the AUC(0-inf) [11] of the same compound?
**A.** The AUC(0-inf) was 667 ng·h/mL.

**Q.** What about the AUC(0-inf) [12] of the same compound?
**A.** The AUC(0-inf) was 778 ng·h/mL.

**Q.** And the concentration at 12 h (2000 mg, C12, 2000 mg KAR5585 single oral, fasted, Cohort 6, Geo. Mean)?
**A.** The concentration at 12 h was 26.2 ng/mL.

**Q.** And the concentration at 12 h (2000 mg, C12, 2000 mg KAR5585 single oral, fasted, Cohort 6, Mean)?
**A.** Its concentration at 12 h is 37.4 ng/mL.

**Q.** And the Cmax [11]?
**A.** The Cmax was 95.1 ng/mL.

**Q.** And the Cmax [12]?
**A.** Its Cmax is 104 ng/mL.

**Q.** And the Vd/F [11]?
**A.** The Vd/F was 20600 L.

**Q.** And the Vd/F [12]?
**A.** Its Vd/F is 25100 L.

**Q.** And the half-life (2000 mg, t1 (t½, apparent terminal half-life), 2000 mg KAR5585 single oral, fasted, Cohort 6, Geo. Mean)?
**A.** Its half-life is 4.76 h.

**Q.** What about the half-life (2000 mg, t1 (t½, apparent terminal half-life), 2000 mg KAR5585 single oral, fasted, Cohort 6, Mean) of the same compound?
**A.** The half-life was 4.84 h.

**Q.** What about the Tmax (2000 mg, tmax, 2000 mg KAR5585 single oral, fasted, Cohort 6, Median) of the same compound?
**A.** The Tmax was 2 h.

**Q.** And the Vd/F (range across dose levels, single oral KAR5585)?
**A.** The Vd/F was 5680 to 25100 L.

**Q.** And the half-life (mean apparent elimination half-life, range across dose levels, single oral KAR5585 100-2000 mg)?
**A.** The half-life was 1.89 to 4.84 h.

**Q.** What about the Tmax (median tmax, range across cohorts, single oral 100-2000 mg KAR5585, fasting cohorts) of the same compound?
**A.** The Tmax was 1.5 to 3 h.

**Q.** What about the “time concentrations remained above the LLOQ” value (single 100 mg KAR5585, fasting) of the same compound?
**A.** The value was “up to 4 hours”.

**Q.** What about the “time concentrations remained above the LLOQ” value (single 200 mg KAR5585, fasting) of the same compound?
**A.** Its value is “up to 12 hours”.

**Q.** And the “time concentrations remained above the LLOQ” value (single 700 mg KAR5585, fasting)?
**A.** Its value is “up to 12 hours”.

**Q.** And the “time concentrations remained above the LLOQ” value (single 1200 mg KAR5585, fasting)?
**A.** The value was “up to 12 hours”.

**Q.** And the “dose proportionality of AUC0-inf and Cmax (power model, 95% CI of slope)” value (single dose range 100 to 2000 mg KAR5585, fasting)?
**A.** The value was “dose proportionality was not concluded”.
